Laboratory results taken from ChEMBL document CHEMBL1201862, “PubChem BioAssay data set” (2004).
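A five-concentration, 48-hour dose response in 96-well plates underlies each endpoint, interpolated linearly between surrounding concentrations. GI50 = concentration required for 50% inhibition of growth.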 Active and inactive are the calls of the source. Rule as the data show it: active = GI50 up to about 1.1 µM and inactive = higher.

How the values were obtained:
Test in all cases: NCI anticancer screen, dose series, 48 h
SK-MEL-28 = test system: SK-MEL-28
CAKI-1 = test system: CAKI-1
SW-620 = test system: SW-620
COLO 205 = test system: COLO 205
OVCAR-4 = test system: OVCAR-4
A498 = test system: A498
NCI-H23 = test system: NCI-H23
SK-MEL-2 = test system: SK-MEL-2
SF-268 = test system: SF-268
NCI-H460 = test system: NCI-H460
SNB-75 = test system: SNB-75
HL-60 = test system: HL-60
RPMI-8226 = test system: RPMI-8226
UO-31 = test system: UO-31
EKVX = test system: EKVX
LOX IMVI = test system: LOX IMVI
DLD-1 = test system: DLD-1
KM12 = test system: KM12
DMS-273 = test system: DMS-273
M14 = test system: M14
CCRF-CEM = test system: CCRF-CEM
SNB-19 = test system: SNB-19
A549 = test system: A549
IGROV-1 = test system: IGROV-1
786-0 = test system: 786-0
SK-OV-3 = test system: SK-OV-3
TK-10 = test system: TK-10
RXF 393 = test system: RXF 393
K562 = test system: K562
SK-MEL-5 = test system: SK-MEL-5
XF498 = test system: XF498
NCI-H522 = test system: NCI-H522
LXFL 529 = test system: LXFL 529
HOP-62 = test system: HOP-62
SF-295 = test system: SF-295
M19-MEL = test system: M19-MEL
U-251 = test system: U-251
HT-29 = test system: HT-29
HOP-92 = test system: HOP-92
ACHN = test system: ACHN
NCI-H226 = test system: NCI-H226
Malme-3M = test system: Malme-3M
SF-539 = test system: SF-539
OVCAR-5 = test system: OVCAR-5
SR = test system: SR
MOLT-4 = test system: MOLT-4
OVCAR-8 = test system: OVCAR-8
UACC-257 = test system: UACC-257
HCT-15 = test system: HCT-15
HCC 2998 = test system: HCC 2998
SNB-78 = test system: SNB-78
OVCAR-3 = test system: OVCAR-3
UACC-62 = test system: UACC-62
SN12C = test system: SN12C
KM-20L2 = test system: KM-20L2
HCT-116 = test system: HCT-116

## CCOC(=O)C1C(c2ccc(Cl)cc2Cl)NC(c2ccc(C)cc2)C(C(=O)OC)S1(=O)=O (stereo not drawn)
SK-MEL-28
  GI50: > 100 µM (inactive)
CAKI-1
  GI50: > 100 µM (inactive)
SW-620
  GI50: > 100 µM (inactive)
COLO 205
  GI50: > 100 µM (inactive)
OVCAR-4
  GI50: > 100 µM (inactive)
A498
  GI50: > 100 µM (inactive)
NCI-H23
  GI50: 66.8 µM (inactive)
SK-MEL-2
  GI50: 95.1 µM (inactive)
SF-268
  GI50: 72.9 µM (inactive)
NCI-H460
  GI50: 37.7 µM (inactive)
SNB-75
  GI50: 20.1 µM (inactive)
HL-60
  GI50: 55.8 µM (inactive)
RPMI-8226
  GI50: 74.3 µM (inactive)
UO-31
  GI50: 37.9 µM (inactive)
EKVX
  GI50: 85.9 µM (inactive)
LOX IMVI
  GI50: 81.5 µM (inactive)
DLD-1
  GI50: > 100 µM (inactive)
KM12
  GI50: > 100 µM (inactive)
DMS-273
  GI50: 85.5 µM (inactive)
M14
  GI50: > 100 µM (inactive)
CCRF-CEM
  GI50: > 100 µM (inactive)
SNB-19
  GI50: > 100 µM (inactive)
A549
  GI50: 37.8 µM (inactive)
IGROV-1
  GI50: > 100 µM (inactive)
786-0
  GI50: 60.5 µM (inactive)
SK-OV-3
  GI50: > 100 µM (inactive)
TK-10
  GI50: > 100 µM (inactive)
RXF 393
  GI50: > 100 µM (inactive)
K562
  GI50: 13.3 µM (inactive)
SK-MEL-5
  GI50: 87.5 µM (inactive)
XF498
  GI50: 3.33 µM (inactive)
NCI-H522
  GI50: > 100 µM (inactive)
LXFL 529
  GI50: 54.6 µM (inactive)
HOP-62
  GI50: > 100 µM (inactive)
SF-295
  GI50: > 100 µM (inactive)
M19-MEL
  GI50: 53.1 µM (inactive)
U-251
  GI50: > 100 µM (inactive)
HT-29
  GI50: > 100 µM (inactive)
HOP-92
  GI50: 12 µM (inactive)
ACHN
  GI50: 80.4 µM (inactive)
NCI-H226
  GI50: 76.4 µM (inactive)
Malme-3M
  GI50: > 100 µM (inactive)
SF-539
  GI50: > 100 µM (inactive)
OVCAR-5
  GI50: > 100 µM (inactive)
SR
  GI50: 69 µM (inactive)
MOLT-4
  GI50: 5.46 µM (inactive)
OVCAR-8
  GI50: > 100 µM (inactive)
UACC-257
  GI50: 22.8 µM (inactive)
HCT-15
  GI50: 59.2 µM
HCC 2998
  GI50: > 100 µM (inactive)
SNB-78
  GI50: > 100 µM (inactive)
OVCAR-3
  GI50: > 100 µM (inactive)
UACC-62
  GI50: 53.1 µM (inactive)

## CC(C)(C)CC(C)(C)c1cc2c(O)c(c1)Cc1cc(C(C)(C)CC(C)(C)C)cc(c1O)Cc1cc(C(C)(C)CC(C)(C)C)cc(c1O)Cc1cc(C(C)(C)CC(C)(C)C)cc(c1O)Cc1cc(C(C)(C)CC(C)(C)C)cc(c1O)Cc1cc(C(C)(C)CC(C)(C)C)cc(c1O)Cc1cc(C(C)(C)CC(C)(C)C)cc(c1O)Cc1cc(C(C)(C)CC(C)(C)C)cc(c1O)C2
SK-MEL-28
  GI50: > 100 µM (inactive)
SN12C
  GI50: > 100 µM (inactive)
SW-620
  GI50: > 100 µM (inactive)
COLO 205
  GI50: > 100 µM (inactive)
OVCAR-4
  GI50: > 100 µM (inactive)
NCI-H23
  GI50: > 100 µM (inactive)
SK-MEL-2
  GI50: > 100 µM (inactive)
SF-268
  GI50: > 100 µM (inactive)
NCI-H460
  GI50: > 100 µM (inactive)
SNB-75
  GI50: 23.9 µM (inactive)
HL-60
  GI50: > 100 µM (inactive)
RPMI-8226
  GI50: > 100 µM (inactive)
UO-31
  GI50: > 100 µM (inactive)
EKVX
  GI50: > 100 µM (inactive)
DLD-1
  GI50: > 100 µM (inactive)
KM12
  GI50: > 100 µM (inactive)
DMS-273
  GI50: > 100 µM (inactive)
M14
  GI50: > 100 µM (inactive)
CCRF-CEM
  GI50: > 100 µM (inactive)
SNB-19
  GI50: > 100 µM (inactive)
A549
  GI50: > 100 µM (inactive)
IGROV-1
  GI50: > 100 µM (inactive)
786-0
  GI50: > 100 µM (inactive)
TK-10
  GI50: > 100 µM (inactive)
RXF 393
  GI50: > 100 µM (inactive)
K562
  GI50: > 100 µM (inactive)
SK-MEL-5
  GI50: > 100 µM (inactive)
XF498
  GI50: > 100 µM (inactive)
NCI-H522
  GI50: > 100 µM (inactive)
LXFL 529
  GI50: > 100 µM (inactive)
KM-20L2
  GI50: > 100 µM (inactive)
HOP-62
  GI50: > 100 µM (inactive)
SF-295
  GI50: > 100 µM (inactive)
M19-MEL
  GI50: > 100 µM (inactive)
U-251
  GI50: > 100 µM (inactive)
HT-29
  GI50: > 100 µM (inactive)
HOP-92
  GI50: > 100 µM (inactive)
ACHN
  GI50: > 100 µM (inactive)
Malme-3M
  GI50: > 100 µM (inactive)
SF-539
  GI50: > 100 µM (inactive)
OVCAR-5
  GI50: > 100 µM (inactive)
MOLT-4
  GI50: > 100 µM (inactive)
OVCAR-8
  GI50: > 100 µM (inactive)
UACC-257
  GI50: > 100 µM (inactive)
HCT-15
  GI50: > 100 µM
HCC 2998
  GI50: > 100 µM (inactive)
SNB-78
  GI50: > 100 µM (inactive)
OVCAR-3
  GI50: > 100 µM (inactive)
UACC-62
  GI50: > 100 µM (inactive)
HCT-116
  GI50: > 100 µM (inactive)
